{"source": "patent US20150051227A1", "about": "“PREDICTIVE BIOMARKER USEFUL FOR CANCER THERAPY MEDIATED BY A CDK INHIBITOR” (Merck Sharp & Dohme Corp., priority 2012, published 2015)", "key": {"[1]": {"tested_on": "solid tumor xenograft panel", "assay": "Xenograft pharmacodynamic analysis (immunoblot of tumor lysates)", "type": "in vivo, mice", "conditions": "40 mg/kg, 6 hours post-dosing, high MCL-1:BCL-xL ratio tumors", "experimental": "Each tumor was divided into three parts. Two parts were snap frozen in liquid nitrogen and stored at −80° C. The third part was preserved in 10% neutral buffered formalin for 24 hours then stored in 70% ethanol at ambient temperature. Whole cell lysates from one snap frozen part were prepared by disruption/homogenation at 4° C. in a 2 ml conical-end microfuge tube containing two stainless steel beads ( 5/32″, grade 25, Ball Supply Corp) and 0.4 ml lysis buffer [1% Triton X-100, 30 mM Tris pH 7.4, 1 mM EDTA and protease (complete, mini, EDTA-free, Roche) and phosphatase (PhosSTOP, Roche) cocktail inhibitors] using a Qiagen Lyser II, shaking at 30 Hz for 2 minutes. 200 μl of pre-chilled 3×RIPA (Cell Signaling Technology) containing protease and phosphatase cocktail inhibitors was added to the homogenate, rotated at 4° C. for 10 minutes, and microcentrifuged at 12 kpm for 10 minutes at 4° C. The supernatant was removed, normalized for protein content using a BCA kit (Pierce, Rockford, Ill.) and stored at −80° C. For Western blots, 5 μg of lysate were subjected to SDS-PAGE except for cleaved PARP analysis, which required loading of 0.5 μg of lysate."}, "[2]": {"tested_on": "23 lung, breast, ovarian, colorectal, and prostate cell lines", "assay": "18 hour viability assay (ATP quantitation)", "type": "cell-based", "conditions": "Homo sapiens, 100 nM, range over 23 cell lines, read-out: cell viability relative to DMSO-negative control"}}}
{"smiles": "CCc1cnn2c(NCc3ccc[n+]([O-])c3)cc(N3CCCC[C@H]3CCO)nc12", "note": "[SCH 727965 (Dinaciclib)]", "values": [{"measurement": "apoptosis (cleaved PARP) in tumors", "setting": "[1]", "result": "induced apoptosis"}, {"measurement": "viability at 0.1 µM", "setting": "[2]", "result": "23 to 102", "unit": "%"}]}
